Test results published in patent US11208405B2, “Pyrrole derivatives as PLK1 inhibitors” (SENTINEL ONCOLOGY LIMITED, priority 2017, dated 2021).
pIC50: −log10 of the molar value. Structures can show the parent of a compound that is named as a salt.

How the values were obtained:
NEK6 = molecular target: T1, NEK6 (Homo sapiens, UniProt Q9HC98); assay: Kinase selectivity assay (DiscoverX KinomeScreen), NEK6; assay type: binding; conditions: NEK6, 5 μM; read-out: % Control
T1 construct: purchased DiscoverX
Method: (§1) The compound of Example 33 was tested for off-target activity against a panel of fifty five kinases bearing functional or structural similarity to PLK1 at a concentration of 5 μM using the DiscoverX KinomeScreen assay.

ULK2 = molecular target: T2, ULK2 (Homo sapiens, UniProt Q8IYT8); assay: Kinase selectivity assay (DiscoverX KinomeScreen), ULK2; assay type: binding; conditions: ULK2, 5 μM; read-out: % Control
T2 construct: purchased DiscoverX
Method: as §1

CDK2 = molecular target: T3, CDK2 (Homo sapiens, UniProt P24941); assay: Kinase selectivity assay (DiscoverX KinomeScreen), CDK2; assay type: binding; conditions: CDK2, 5 μM; read-out: % Control
T3 construct: purchased DiscoverX
Method: as §1

WNK4 = molecular target: T4, WNK4 (Homo sapiens, UniProt Q96J92); assay: Kinase selectivity assay (DiscoverX KinomeScreen), WNK4; assay type: binding; conditions: WNK4, 5 μM; read-out: % Control
T4 construct: purchased DiscoverX
Method: as §1

NEK4 = molecular target: T5, NEK4 (Homo sapiens, UniProt P51957); assay: Kinase selectivity assay (DiscoverX KinomeScreen), NEK4; assay type: binding; conditions: NEK4, 5 μM; read-out: % Control
T5 construct: purchased DiscoverX
Method: as §1

cytochrome P450 2C19 = cytochrome P450 2C19 (Homo sapiens, UniProt P33261); assay: Cytochrome P450 inhibition, 2C19; assay type: in vitro ADME
EIF2AK2 = molecular target: T6, EIF2AK2 (Homo sapiens, UniProt P19525); assay: Kinase selectivity assay (DiscoverX KinomeScreen), EIF2AK2; assay type: binding; conditions: EIF2AK2, 5 μM; read-out: % Control
T6 construct: purchased DiscoverX
Method: as §1

TTK = molecular target: T7, TTK (Homo sapiens, UniProt P33981); assay: Kinase selectivity assay (DiscoverX KinomeScreen), TTK; assay type: binding; conditions: read-out: % Control
T7 construct: purchased DiscoverX
Method: as §1

[1] = system: glioblastoma cell line 909745; assay: Glioblastoma cancer cell viability, cell line 909745; assay type: cell-based
Method: (§2) Assay to Measure the Effects of Compounds of the Invention on Glioblastoma Cancer Cell Viability
(§3) The compound of Example 33 was tested for inhibitory activity against the glioblastoma cell lines in Table 7 below.

Kinetic solubility = assay type: physicochemical; conditions: kinetic from dmso stock
[2] = system: glioblastoma cell line 906868; assay: Glioblastoma cancer cell viability, cell line 906868; assay type: cell-based
Method: as §2, §3

[3] = system: glioblastoma cell line 906746; assay: Glioblastoma cancer cell viability, cell line 906746; assay type: cell-based
Method: as §2, §3

TBK1 = molecular target: T8, TBK1 (Homo sapiens, UniProt Q9UHD2); assay: Kinase selectivity assay (DiscoverX KinomeScreen), TBK1; assay type: binding; conditions: TBK1, 5 μM; read-out: % Control
T8 construct: purchased DiscoverX
Method: as §1

GSG2 = molecular target: T9, GSG2 (Homo sapiens, UniProt Q8TF76); assay: Kinase selectivity assay (DiscoverX KinomeScreen), GSG2; assay type: binding; conditions: GSG2, 5 μM; read-out: % Control
T9 construct: purchased DiscoverX
Method: as §1

ULK1 = molecular target: T10, ULK1 (Homo sapiens, UniProt O75385); assay: Kinase selectivity assay (DiscoverX KinomeScreen), ULK1; assay type: binding; conditions: ULK1, 5 μM; read-out: % Control
T10 construct: purchased DiscoverX
Method: as §1

PLK1 = molecular target: T11, PLK1 (Homo sapiens, UniProt P53350); assay: Kinase selectivity assay (DiscoverX KinomeScreen), PLK1; assay type: binding; conditions: PLK1, 5 μM; read-out: % Control
T11 construct: purchased DiscoverX
Method: as §1

[4] = system: glioblastoma cell line 906871; assay: Glioblastoma cancer cell viability, cell line 906871; assay type: cell-based
Method: as §2, §3

BMP2K = molecular target: T12, BMP2K (Homo sapiens, UniProt Q9NSY1); assay: Kinase selectivity assay (DiscoverX KinomeScreen), BMP2K; assay type: binding; conditions: read-out: % Control
T12 construct: purchased DiscoverX
Method: as §1

HCT116 xenograft tumours = assay: In vivo anti-cancer activity in mice bearing HCT116 tumours; conditions: oral 50 mg/kg or 200 m/kg on days 1, 3, 7, 10 and 13, dose of the T/C value not stated
Method: In Vivo Anti-Cancer Activity in Mice Bearing HCT116 Tumours
Mice bearing HCT116 xenograft tumours were give oral dosages of either 50 mg/kg or […] on days 1, 3, 7, 10 and 13 and the tumour volumes measured at days 1, 3, 5, 8, 10, 12 and 15. Tumour volumes in a control group of tumour-bearing mice, who had received vehicle only at the same time points were also measured.

NEK2 = molecular target: T13, NEK2 (Homo sapiens, UniProt P51955); assay: Kinase selectivity assay (DiscoverX KinomeScreen), NEK2; assay type: binding; conditions: NEK2, 5 μM; read-out: % Control
T13 construct: purchased DiscoverX
Method: as §1

ROCK2 = molecular target: T14, ROCK2 (Homo sapiens, UniProt O75116); assay: Kinase selectivity assay (DiscoverX KinomeScreen), ROCK2; assay type: binding; conditions: ROCK2, 5 μM; read-out: % Control
T14 construct: purchased DiscoverX
Method: as §1

AURKA = molecular target: T15, AURKA (Homo sapiens, UniProt O14965); assay: Kinase selectivity assay (DiscoverX KinomeScreen), AURKA; assay type: binding; conditions: read-out: % Control
T15 construct: purchased DiscoverX
Method: as §1

GAK = molecular target: T16, GAK (Homo sapiens, UniProt O14976); assay: Kinase selectivity assay (DiscoverX KinomeScreen), GAK; assay type: binding; conditions: read-out: % Control
T16 construct: purchased DiscoverX
Method: as §1

[5] = Determination of oral bioavailability (plasma pharmacokinetics i.v. and p.o.); assay type: in vivo, Male CD-1 mice; conditions: mice
Method: Determination of Oral Bioavailability The oral bioavailability of the compound of Example 33 was determined in mice and compared with the bioavailability following intravenous injection using the following protocol. […] N=3 mice per time point with 15 ul plasma per aliquot.

WNK1 = molecular target: T17, WNK1 (Homo sapiens, UniProt Q9H4A3); assay: Kinase selectivity assay (DiscoverX KinomeScreen), WNK1; assay type: binding; conditions: WNK1, 5 μM; read-out: % Control
T17 construct: purchased DiscoverX
Method: as §1

NEK5 = molecular target: T18, NEK5 (Homo sapiens, UniProt Q6P3R8); assay: Kinase selectivity assay (DiscoverX KinomeScreen), NEK5; assay type: binding; conditions: NEK5, 5 μM; read-out: % Control
T18 construct: purchased DiscoverX
Method: as §1

[6] = system: glioblastoma cell line 946368; assay: Glioblastoma cancer cell viability, cell line 946368; assay type: cell-based
Method: as §2, §3

PLK2 = molecular target: T19, PLK2 (Homo sapiens, UniProt Q9NYY3); assay: Kinase selectivity assay (DiscoverX KinomeScreen), PLK2; assay type: binding; conditions: PLK2, 5 μM; read-out: % Control
T19 construct: purchased DiscoverX
Method: as §1

CAMKK1 = molecular target: T20, CAMKK1 (Homo sapiens, UniProt Q8N5S9); assay: Kinase selectivity assay (DiscoverX KinomeScreen), CAMKK1; assay type: binding; conditions: CAMKK1, 5 μM; read-out: % Control
T20 construct: purchased DiscoverX
Method: as §1

[7] = system: glioblastoma cell line 908144; assay: Glioblastoma cancer cell viability, cell line 908144; assay type: cell-based
Method: as §2, §3

IKBKE = molecular target: T21, IKBKE (Homo sapiens, UniProt Q14164); assay: Kinase selectivity assay (DiscoverX KinomeScreen), IKBKE; assay type: binding; conditions: read-out: % Control
T21 construct: purchased DiscoverX
Method: as §1

[8] = system: glioblastoma cell line 909750; assay: Glioblastoma cancer cell viability, cell line 909750; assay type: cell-based
Method: as §2, §3

[9] = male, CD-1, mouse, 2 mg/kg IV, plasma
[10] = male, CD-1, mouse, 10 mg/Kg PO, plasma

T2 sequence (Q8IYT8 whole entry): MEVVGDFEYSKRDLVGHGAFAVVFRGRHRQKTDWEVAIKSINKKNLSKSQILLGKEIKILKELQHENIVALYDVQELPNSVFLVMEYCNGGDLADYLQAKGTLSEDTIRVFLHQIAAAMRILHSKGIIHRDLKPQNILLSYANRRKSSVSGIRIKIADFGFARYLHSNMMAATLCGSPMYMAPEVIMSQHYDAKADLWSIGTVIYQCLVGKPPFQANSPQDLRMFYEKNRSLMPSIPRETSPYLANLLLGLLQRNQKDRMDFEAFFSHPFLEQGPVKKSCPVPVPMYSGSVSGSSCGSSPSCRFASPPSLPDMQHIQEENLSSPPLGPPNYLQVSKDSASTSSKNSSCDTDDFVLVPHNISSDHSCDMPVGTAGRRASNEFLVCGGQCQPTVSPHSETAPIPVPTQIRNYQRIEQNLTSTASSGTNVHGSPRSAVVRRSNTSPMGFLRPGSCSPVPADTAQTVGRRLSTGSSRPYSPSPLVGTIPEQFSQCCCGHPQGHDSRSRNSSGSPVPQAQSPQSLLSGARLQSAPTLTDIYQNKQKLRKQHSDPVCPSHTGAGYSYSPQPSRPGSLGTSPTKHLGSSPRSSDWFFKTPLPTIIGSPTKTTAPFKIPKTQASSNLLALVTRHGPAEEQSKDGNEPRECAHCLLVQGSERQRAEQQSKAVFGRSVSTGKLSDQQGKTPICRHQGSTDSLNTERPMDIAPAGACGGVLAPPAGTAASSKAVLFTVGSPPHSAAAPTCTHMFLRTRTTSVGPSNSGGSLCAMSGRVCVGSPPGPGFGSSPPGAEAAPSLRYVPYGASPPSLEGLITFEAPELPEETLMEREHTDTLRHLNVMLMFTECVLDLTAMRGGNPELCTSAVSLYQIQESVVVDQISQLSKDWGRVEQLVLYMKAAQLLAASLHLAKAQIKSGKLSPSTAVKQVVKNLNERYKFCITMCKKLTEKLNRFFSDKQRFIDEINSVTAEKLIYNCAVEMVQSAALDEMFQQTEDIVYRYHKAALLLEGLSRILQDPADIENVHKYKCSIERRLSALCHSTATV
T15 sequence (O14965 whole entry): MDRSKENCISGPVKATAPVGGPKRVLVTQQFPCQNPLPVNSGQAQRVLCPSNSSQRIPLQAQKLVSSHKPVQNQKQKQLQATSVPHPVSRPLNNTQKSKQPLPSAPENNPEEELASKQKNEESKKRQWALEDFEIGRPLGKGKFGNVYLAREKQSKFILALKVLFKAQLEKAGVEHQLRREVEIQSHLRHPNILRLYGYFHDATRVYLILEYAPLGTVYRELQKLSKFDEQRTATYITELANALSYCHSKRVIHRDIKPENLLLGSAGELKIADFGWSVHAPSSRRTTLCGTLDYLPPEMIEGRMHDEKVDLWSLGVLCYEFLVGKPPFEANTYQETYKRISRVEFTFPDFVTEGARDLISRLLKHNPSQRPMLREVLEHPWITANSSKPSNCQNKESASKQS
T19 sequence (Q9NYY3 whole entry): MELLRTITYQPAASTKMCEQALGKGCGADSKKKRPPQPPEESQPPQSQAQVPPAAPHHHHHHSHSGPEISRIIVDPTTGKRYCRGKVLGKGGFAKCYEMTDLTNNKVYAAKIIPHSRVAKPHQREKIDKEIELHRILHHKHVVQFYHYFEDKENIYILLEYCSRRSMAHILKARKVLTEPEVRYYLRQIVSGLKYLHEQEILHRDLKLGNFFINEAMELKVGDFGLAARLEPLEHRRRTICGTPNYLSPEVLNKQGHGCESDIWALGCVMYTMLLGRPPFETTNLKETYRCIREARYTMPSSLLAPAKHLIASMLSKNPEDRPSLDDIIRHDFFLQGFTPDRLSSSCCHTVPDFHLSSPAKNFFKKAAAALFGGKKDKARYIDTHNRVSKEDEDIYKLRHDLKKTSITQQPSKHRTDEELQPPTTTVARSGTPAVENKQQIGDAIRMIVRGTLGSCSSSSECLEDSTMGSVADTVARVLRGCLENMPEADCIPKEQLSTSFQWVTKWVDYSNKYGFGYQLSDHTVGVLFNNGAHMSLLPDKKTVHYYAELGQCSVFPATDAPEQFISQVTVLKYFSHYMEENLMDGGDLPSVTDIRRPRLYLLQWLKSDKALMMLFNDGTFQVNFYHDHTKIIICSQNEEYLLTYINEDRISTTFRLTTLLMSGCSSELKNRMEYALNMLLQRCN
T20 sequence (Q8N5S9 whole entry): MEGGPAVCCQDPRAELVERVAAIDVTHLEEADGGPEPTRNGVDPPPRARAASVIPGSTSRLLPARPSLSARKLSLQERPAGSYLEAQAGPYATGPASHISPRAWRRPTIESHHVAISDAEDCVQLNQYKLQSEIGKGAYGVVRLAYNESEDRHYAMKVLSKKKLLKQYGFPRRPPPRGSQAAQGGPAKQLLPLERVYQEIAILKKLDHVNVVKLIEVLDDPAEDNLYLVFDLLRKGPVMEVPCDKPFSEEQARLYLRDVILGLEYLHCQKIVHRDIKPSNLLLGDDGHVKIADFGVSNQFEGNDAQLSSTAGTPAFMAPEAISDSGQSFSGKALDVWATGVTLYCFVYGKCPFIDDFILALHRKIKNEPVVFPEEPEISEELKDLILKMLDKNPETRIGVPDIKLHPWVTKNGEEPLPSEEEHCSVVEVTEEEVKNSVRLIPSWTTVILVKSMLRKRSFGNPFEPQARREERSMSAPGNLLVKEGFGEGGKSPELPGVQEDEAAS
T14 sequence (O75116 whole entry): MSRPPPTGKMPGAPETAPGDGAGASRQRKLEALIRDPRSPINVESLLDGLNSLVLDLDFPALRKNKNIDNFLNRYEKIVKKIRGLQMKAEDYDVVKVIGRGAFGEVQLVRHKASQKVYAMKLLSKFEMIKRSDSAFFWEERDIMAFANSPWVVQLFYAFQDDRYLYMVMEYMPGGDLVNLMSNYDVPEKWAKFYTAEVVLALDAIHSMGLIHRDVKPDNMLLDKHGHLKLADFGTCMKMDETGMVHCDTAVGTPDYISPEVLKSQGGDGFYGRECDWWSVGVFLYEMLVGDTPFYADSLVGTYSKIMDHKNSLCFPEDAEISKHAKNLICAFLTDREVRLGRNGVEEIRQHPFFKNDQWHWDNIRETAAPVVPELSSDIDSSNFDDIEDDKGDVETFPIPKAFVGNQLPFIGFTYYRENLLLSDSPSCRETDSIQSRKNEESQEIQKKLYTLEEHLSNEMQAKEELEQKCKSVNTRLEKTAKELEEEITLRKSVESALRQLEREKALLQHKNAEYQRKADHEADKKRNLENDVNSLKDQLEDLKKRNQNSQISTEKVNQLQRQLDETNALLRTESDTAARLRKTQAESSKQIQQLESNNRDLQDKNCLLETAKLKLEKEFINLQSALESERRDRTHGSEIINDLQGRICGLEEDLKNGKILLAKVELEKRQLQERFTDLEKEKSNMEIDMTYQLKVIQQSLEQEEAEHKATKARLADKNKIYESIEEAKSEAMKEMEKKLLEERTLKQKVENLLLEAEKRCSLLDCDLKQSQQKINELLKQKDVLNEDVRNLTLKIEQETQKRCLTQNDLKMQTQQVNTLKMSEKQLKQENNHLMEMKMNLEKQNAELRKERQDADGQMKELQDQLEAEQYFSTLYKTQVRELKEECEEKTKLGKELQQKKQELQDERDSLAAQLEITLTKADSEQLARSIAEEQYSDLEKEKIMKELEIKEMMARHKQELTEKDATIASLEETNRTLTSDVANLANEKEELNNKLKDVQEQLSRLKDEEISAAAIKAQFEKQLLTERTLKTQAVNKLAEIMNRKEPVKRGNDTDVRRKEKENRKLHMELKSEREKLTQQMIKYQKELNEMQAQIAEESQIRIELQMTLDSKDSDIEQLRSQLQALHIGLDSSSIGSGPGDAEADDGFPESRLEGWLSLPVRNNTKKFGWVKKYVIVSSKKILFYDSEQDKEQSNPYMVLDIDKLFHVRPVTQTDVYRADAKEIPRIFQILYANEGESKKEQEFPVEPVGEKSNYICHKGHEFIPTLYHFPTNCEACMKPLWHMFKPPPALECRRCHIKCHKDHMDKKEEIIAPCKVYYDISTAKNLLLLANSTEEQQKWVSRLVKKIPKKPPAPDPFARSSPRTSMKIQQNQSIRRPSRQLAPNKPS
T18 sequence (Q6P3R8 whole entry): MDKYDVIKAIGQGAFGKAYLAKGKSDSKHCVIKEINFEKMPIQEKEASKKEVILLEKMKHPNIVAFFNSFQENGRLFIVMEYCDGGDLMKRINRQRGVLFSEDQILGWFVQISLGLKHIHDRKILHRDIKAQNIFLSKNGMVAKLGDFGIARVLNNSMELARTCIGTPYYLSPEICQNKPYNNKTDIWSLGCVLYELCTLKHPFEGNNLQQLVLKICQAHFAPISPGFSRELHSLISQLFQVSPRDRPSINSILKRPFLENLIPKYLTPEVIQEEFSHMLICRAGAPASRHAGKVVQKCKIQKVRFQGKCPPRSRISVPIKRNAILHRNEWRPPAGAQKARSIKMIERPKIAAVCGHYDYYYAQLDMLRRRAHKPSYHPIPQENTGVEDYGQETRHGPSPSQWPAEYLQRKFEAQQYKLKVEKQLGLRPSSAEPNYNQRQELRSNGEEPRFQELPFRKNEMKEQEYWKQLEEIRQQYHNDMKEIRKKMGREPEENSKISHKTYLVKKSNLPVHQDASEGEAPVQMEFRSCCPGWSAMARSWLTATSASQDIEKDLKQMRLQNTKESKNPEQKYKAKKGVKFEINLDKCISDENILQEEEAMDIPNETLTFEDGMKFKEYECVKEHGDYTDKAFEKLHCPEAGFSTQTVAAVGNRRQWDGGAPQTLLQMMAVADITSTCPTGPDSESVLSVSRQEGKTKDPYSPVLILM
T1 sequence (Q9HC98 whole entry): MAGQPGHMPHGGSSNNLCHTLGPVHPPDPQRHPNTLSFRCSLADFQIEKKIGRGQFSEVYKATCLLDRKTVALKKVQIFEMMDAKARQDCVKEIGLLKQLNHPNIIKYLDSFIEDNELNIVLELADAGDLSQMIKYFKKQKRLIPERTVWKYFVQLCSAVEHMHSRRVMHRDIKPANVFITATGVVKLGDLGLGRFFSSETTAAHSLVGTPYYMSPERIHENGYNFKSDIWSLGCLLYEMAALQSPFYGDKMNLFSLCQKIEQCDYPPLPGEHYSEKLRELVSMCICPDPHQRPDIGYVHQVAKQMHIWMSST

**Q.** For CN(C)CCNC(=O)c1ccc(-c2ccc(-c3ccc(Cl)cc3)n2-c2ccccc2C(F)(F)F)cc1 [Example 33, 4-[5-(4-chlorophenyl)-1-[2-(trifluoromethyl)phenyl]pyrrol-2-yl]-N-[2-(dimethylamino)ethyl]benzamide Hydrochloride], which remaining activity at 5 µM (NEK6) is on record?
**A.** 99%

**Q.** What about the remaining activity at 5 µM (ULK2) of the same molecule?
**A.** 100%

**Q.** And the remaining activity at 5 µM (CDK2)?
**A.** 89%

**Q.** What about the remaining activity at 5 µM (WNK4) of the same molecule?
**A.** 91%

**Q.** What about the remaining activity at 5 µM (NEK4) of the same molecule?
**A.** 100%

**Q.** What about the “cytochrome P450 inhibition 2C19” value (cytochrome P450 2C19) of the same molecule?
**A.** > 10 µM

**Q.** What about the remaining activity at 5 µM (EIF2AK2) of the same molecule?
**A.** 90%

**Q.** What about the remaining activity at 5 µM (TTK) of the same molecule?
**A.** 83%

**Q.** What about the pIC50 [1] of the same molecule?
**A.** 5.86

**Q.** And the solubility kinetic (Kinetic solubility)?
**A.** 32 µM

**Q.** And the pIC50 [2]?
**A.** 6.60

**Q.** And the pIC50 [3]?
**A.** 6.37

**Q.** What about the remaining activity at 5 µM (TBK1) of the same molecule?
**A.** 80%

**Q.** And the remaining activity at 5 µM (GSG2)?
**A.** 77%

**Q.** And the remaining activity at 5 µM (ULK1)?
**A.** 84%

**Q.** What about the remaining activity at 5 µM (PLK1) of the same molecule?
**A.** 100%

**Q.** And the pIC50 [4]?
**A.** 6.55

**Q.** What about the remaining activity at 5 µM (BMP2K) of the same molecule?
**A.** 85%

**Q.** And the “effect on tumour growth (T/C)” value (HCT116 xenograft tumours)?
**A.** 48%

**Q.** What about the remaining activity at 5 µM (NEK2) of the same molecule?
**A.** 94%

**Q.** What about the remaining activity at 5 µM (ROCK2) of the same molecule?
**A.** 100%

**Q.** What about the remaining activity at 5 µM (AURKA) of the same molecule?
**A.** 83%

**Q.** What about the remaining activity at 5 µM (GAK) of the same molecule?
**A.** 100%

**Q.** And the AUC(0-inf) [5, 9]?
**A.** 2100 ng·h/mL

**Q.** And the Cmax [5, 9]?
**A.** 873 ng/mL

**Q.** What about the half-life ([5]; male, CD-1, mouse, 2 mg/kg IV, plasma, read-out: T½ (converted)) of the same molecule?
**A.** 13 h

**Q.** What about the Vd ([5]; male, CD-1, mouse, 2 mg/kg IV, plasma, read-out: Vss) of the same molecule?
**A.** 17 L/kg

**Q.** What about the AUC(0-inf) [5, 10] of the same molecule?
**A.** 9800 ng·h/mL

**Q.** What about the Cmax [5, 10] of the same molecule?
**A.** 415 ng/mL

**Q.** And the CI ([5]; 2 mg/kg IV, plasma)?
**A.** 16 mL/min/kg

**Q.** What about the F ([5]; 10 mg/Kg PO versus 2 mg/kg IV) of the same molecule?
**A.** 93%

**Q.** And the T½ ([5]; 10 mg/Kg PO, plasma)?
**A.** 15 h

**Q.** And the Vz ([5]; 10 mg/Kg PO, plasma)?
**A.** 23 L/kg

**Q.** And the remaining activity at 5 µM (WNK1)?
**A.** 97%

**Q.** And the remaining activity at 5 µM (NEK5)?
**A.** 99%

**Q.** And the pIC50 [6]?
**A.** 5.85

**Q.** What about the remaining activity at 5 µM (PLK2) of the same molecule?
**A.** 85%

**Q.** What about the remaining activity at 5 µM (CAMKK1) of the same molecule?
**A.** 91%

**Q.** What about the pIC50 [7] of the same molecule?
**A.** 5.62

**Q.** What about the remaining activity at 5 µM (IKBKE) of the same molecule?
**A.** 75%

**Q.** And the pIC50 [8]?
**A.** 6.03
